Assay results reported in paper PMC12268802, “The herbicidal natural product phosphonothrixin is an inhibitor of the riboflavin biosynthetic enzyme L‐3,4‐dihydroxy‐2‐butanone‐4‐phosphate synthase” (Pest Management Science, 2025).

What was measured:
[1] = tested on: imidazoleglycerol phosphate dehydratase; set-up: method as in PMID 12228396; details: cited from earlier work
[2] = cited from earlier work
EPSP synthase = tested on: EPSP synthase; set-up: method as in PMID 1939260; details: from several higher plants; cited from earlier work
Lemna gibba = Lemna gibba growth assay; assay type: in vivo; details: 7 days
Protocol: Growth experiments were performed in sterile 6‐well cell culture plates and were initiated by transferring four Lemna gibba fronds per well to 5 mL of K‐medium[22] pH 4.8 containing 1% (w/v) sucrose and a selected concentration of phosphonothrixin (1) and riboflavin determined from previous experiments. The cell culture plates were incubated for 7 days in a growth cabinet at 22 °C and a continuous photon flux density of 75 μE/m^2s.

[3] = biological target: dihydroxy‐acid dehydratase; set-up: method as in PMID 29995859; details: Arabidopsis enzyme; cited from earlier work
DHBPS activity assay = substrate: O=C(CO)[C@H](O)[C@H](O)COP(=O)(O)O; assay: DHBPS activity assay; assay type: biochemical, Arabidopsis thaliana; details: other: substrate varied 0 to 2 mM; pH 6.5
Protocol: DHBPS activity assays were out carried in 96‐well microtiter plates using a modification of the procedure previously described.[18] The reaction mixture contained 100 mM MES (2‐morpholinoethanesulfonic acid) buffer pH 6.5, 20 mM MgCl2, 20 mM D‐ribose‐5‐phosphate (Sigma‐Aldrich R7750), 0.02% Tween‐20, 0.2 mg BSA, 0.5 μg of spinach phosphoriboisomerase (Sigma‐Aldrich P9752) and DHBPS enzyme in a final volume of 110 μL. Assays were initiated by adding enzyme and terminated after 120 min incubation at rt by the addition of 90 μL of a solution of 3.5% α‐naphthol and 0.2% creatine in 2 N NaOH. After an additional 45 min incubation at rt the absorbance was determined at 540 nm. The pI50‐value for inhibition by phosphonothrixin (1) was determined with the XLFit Excel add‐in version 4.3.1 curve fitting program of ID Business Solutions Limited. […] Reaction velocities were fitted to the Michaelis–Menten equation with the XLFit curve fitting program.

[4] = 50 μM riboflavin in the presence of 100 μM phosphonothrixin

## O=P(O)(O)[C@H]1CCC[C@@](O)(c2nc[nH]n2)C1 (relative stereo) [IRL1803, trans‐(3‐hydroxy‐3‐(1H‐1,2,4‐triazol‐3‐yl)cyclohexyl)‐phosphonic acid]
[1]
  potency against imidazoleglycerol phosphate dehydratase: nanomolar inhibitor
[2]
  application rate required for a significant herbicidal effect: ~1 kg ha^−1

## O=C(O)CNCP(=O)(O)O [glyphosate]
EPSP synthase
  IC50-values, EPSP synthase: single and double‐digit micromolar range

## Cc1cc2nc3c(=O)[nH]c(=O)nc-3n(C[C@H](O)[C@H](O)[C@H](O)CO)c2cc1C [riboflavin]
Lemna gibba; 50 μM riboflavin alone
  bleaching of Lemna gibba fronds: some mild bleaching of the fronds
  growth of Lemna gibba: did not affect the growth
Lemna gibba; [4]
  reversal of bleaching of Lemna gibba: reversed the bleaching phenotype to the level observed in the experiment where only riboflavin had been applied
  reversal of growth inhibition of Lemna gibba: almost completely alleviated the growth inhibition

## aspterric acid
[3]
  IC50: 0.5 µM

B1: AtDHBPS (Arabidopsis thaliana) (protein)
chain: MFVAEDDDFELDLPTPGFSSIPEAIEDIRQGKLVVVVDDEDRENEGDLVMAAQLATPEAMAFIVRHGTGIVCVSMKEDDLERLHLPLMVNQKENEEKLSTAFTVTVDAKHGTTTGVSARDRATTILSLASRDSKPEDFNRPGHIFPLKYREGGVLKRAGHTEASVDLTVLAGLDPVGVLCEIVDDDGSMARLPKLREFAAENNLKVVSIADLIRYRRKRDKLVERASKGGRADPAFLYKVVINSKLEGKPIPNPLLGLDSTRTGHHHHHH
notes: made in house; host or cells: Escherichia coli BL21(DE3)
DHBPS activity assay
  Km: 150 ± 20 µM
